Measurements reported in article PMC5515969, “Effects of 31 FDA approved small-molecule kinase inhibitors on isolated rat liver mitochondria” (Archives of Toxicology, 2016).
Read-outs that look alike come from different tables or passages of the source.

Tests used:
[1] = tested on: isolated rat liver mitochondria
[2] = tested on: isolated rat liver mitochondria; assay: Mitochondrial ROS production (CM-H2DCFDA); details: DMSO treated samples set as 1
[3] = tested on: RCC III; assay: RCC III activity in submitochondrial particles; type: biochemical, rat; details: 15 min, DMSO-treated = 100
In short: (§1)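 Inhibitors preincubated 15 min with submitochondrial particles (1 mg/ml) before activity readout. RCC I (rotenone-sensitive fraction) and I/V: A340, and RCC II: A600, each every 1 min for 6 min; RCC III/IV: A550 every 10 s for 2 min. Activities relative to DMSO control set as 1.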

[4] = tested on: isolated rat liver mitochondria; assay: Mitochondrial oxygen consumption (glutamate/malate or succinate driven, state 4 and state 3); type: biochemical; as to State 3 respiration driven by succinate at 10XCmax: key: 0 indicates that the drug had no effects (negative); as to State 3 respiration driven by succinate at 1XCmax: key: 0 indicates that the drug had no effects (negative)
In short: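 Rat liver mitochondria (1 mg/ml protein) exposed 5 min to kinase inhibitors in 0.1% DMSO, then O2 consumption measured by Clark-type electrode with glutamate/malate or succinate (state 4), ADP added after 3 min (state 3). Rates normalized to 0.1% DMSO controls set to 1.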

[5] = tested on: isolated rat liver mitochondria; assay: Mitochondrial swelling (absorbance at 535 nm); type: biochemical; as to Swelling 5XCmax: key: 0 indicates that the drug had no effects (negative)
[6] = tested on: RCC I; assay: RCC I activity in submitochondrial particles; type: biochemical, rat; set-up: key to RCC I at 10XCmax / RCC I at 100XCmax / RCC I at 50XCmax / RCC I at 30XCmax / RCC I at 20XCmax: activity relative to DMSO-treated controls (control set as 1 = 100%); details: for RCC activity I: 15 min, DMSO-treated = 100
In short: as §1

[7] = cited from earlier work
[8] = tested on: RCC V; assay: RCC V activity in submitochondrial particles; type: biochemical, rat; details: for RCC activity V: 15 min, DMSO-treated = 100; as to RCC V at 5XCmax: key: 0 indicates that the drug had no effects (negative)
In short: as §1

[9] = target: T1, RCC II (Rattus norvegicus, UniProt P21913+Q641Z9+Q6PCT8+Q920L2); assay: RCC II activity in submitochondrial particles; type: biochemical; set-up: key: activity relative to DMSO-treated controls (control set as 1 = 100%); details: relative to DMSO treated samples
T1 construct: Submitochondrial particles were prepared by subjecting the intact mitochondria to three successive freeze–thaw cycles; from tissue; host or cells: rat liver mitochondria, used as submitochondrial particles
In short: as §1

[10] = cited from earlier work; remark: listed apart in the source
[11] = 1XCmax, DMSO treated samples set as 1
[12] = 2.5XCmax, DMSO treated samples set as 1
[13] = 5XCmax, DMSO treated samples set as 1
[14] = 10XCmax, DMSO treated samples set as 1
[15] = 20XCmax, DMSO treated samples set as 1
[16] = 30XCmax, DMSO treated samples set as 1
[17] = 50XCmax, DMSO treated samples set as 1
[18] = 100XCmax, DMSO treated samples set as 1

T1 sequence (Q920L2 35-656): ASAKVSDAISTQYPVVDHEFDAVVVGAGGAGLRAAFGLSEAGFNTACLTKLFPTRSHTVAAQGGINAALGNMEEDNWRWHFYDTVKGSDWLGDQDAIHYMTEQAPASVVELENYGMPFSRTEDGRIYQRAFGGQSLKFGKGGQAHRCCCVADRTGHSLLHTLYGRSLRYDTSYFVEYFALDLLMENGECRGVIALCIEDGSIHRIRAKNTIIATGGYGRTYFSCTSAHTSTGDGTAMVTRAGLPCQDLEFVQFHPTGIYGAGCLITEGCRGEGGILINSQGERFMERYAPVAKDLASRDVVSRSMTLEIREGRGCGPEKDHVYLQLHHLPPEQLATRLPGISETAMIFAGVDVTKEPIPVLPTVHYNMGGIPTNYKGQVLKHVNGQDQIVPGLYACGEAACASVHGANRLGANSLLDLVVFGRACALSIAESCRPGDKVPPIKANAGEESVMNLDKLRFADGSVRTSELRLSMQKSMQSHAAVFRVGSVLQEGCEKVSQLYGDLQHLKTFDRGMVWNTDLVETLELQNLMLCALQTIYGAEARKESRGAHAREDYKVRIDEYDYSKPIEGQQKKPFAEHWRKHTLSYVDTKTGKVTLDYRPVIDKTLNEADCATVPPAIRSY
T1 sequence (P21913 31-282): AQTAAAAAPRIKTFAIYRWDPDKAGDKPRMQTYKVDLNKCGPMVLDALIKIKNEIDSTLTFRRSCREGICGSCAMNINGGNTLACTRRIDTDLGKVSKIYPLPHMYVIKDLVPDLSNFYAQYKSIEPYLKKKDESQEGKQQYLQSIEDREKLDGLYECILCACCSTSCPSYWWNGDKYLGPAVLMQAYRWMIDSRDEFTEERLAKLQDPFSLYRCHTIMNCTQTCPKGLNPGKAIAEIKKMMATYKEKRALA
T1 sequence (Q641Z9 1-169): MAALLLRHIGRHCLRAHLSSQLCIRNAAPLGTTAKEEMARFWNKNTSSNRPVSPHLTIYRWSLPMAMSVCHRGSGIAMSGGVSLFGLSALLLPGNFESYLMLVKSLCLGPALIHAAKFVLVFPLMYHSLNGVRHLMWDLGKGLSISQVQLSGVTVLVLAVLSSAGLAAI
T1 sequence (Q6PCT8 57-159): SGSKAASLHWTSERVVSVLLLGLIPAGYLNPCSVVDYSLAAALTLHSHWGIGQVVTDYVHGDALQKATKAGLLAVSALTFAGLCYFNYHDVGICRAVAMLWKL

COc1cc2c(Nc3ccc(Br)cc3F)ncnc2cc1OCC1CCN(C)CC1 [Vandetanib]
Cytochrome c release 1XCmax ([1]; 1XCmax, positive control alamethicin treated samples): 0
Cytochrome c release 2.5XCmax ([1]; 2.5XCmax, positive control alamethicin treated samples): 0
Cytochrome c release 5XCmax ([1]; 5XCmax, positive control alamethicin treated samples): 0
Cytochrome c release 10XCmax ([1]; 10XCmax, positive control alamethicin treated samples): 0
Cytochrome c release 20XCmax ([1]; 20XCmax, positive control alamethicin treated samples): 0
Cytochrome c release 30XCmax ([1]; 30XCmax, positive control alamethicin treated samples): 0
Cytochrome c release 50XCmax ([1]; 50XCmax, positive control alamethicin treated samples): 0
Cytochrome c release 100XCmax ([1]; 100XCmax, positive control alamethicin treated samples): 18.47±3.80 percentage of the positive control group
lowest concentration causing cytochrome c release ([1]; rat, 30 min, pH 7.4): 100 fold Cmax
ROS measured by CM-H2DCFDA at 1XCmax ([2]; 1XCmax): 0
ROS measured by CM-H2DCFDA at 2.5XCmax ([2]; 2.5XCmax): 0
ROS measured by CM-H2DCFDA at 5XCmax ([2]; 5XCmax): 0
ROS measured by CM-H2DCFDA at 10XCmax ([2]; 10XCmax): 0
ROS measured by CM-H2DCFDA at 20XCmax ([2]; 20XCmax): 0
ROS measured by CM-H2DCFDA at 30XCmax ([2]; 30XCmax): 0
ROS measured by CM-H2DCFDA at 50XCmax ([2]; 50XCmax): 0
ROS measured by CM-H2DCFDA at 100XCmax ([2]; 100XCmax): 0
RCC activity III ([3]; 50-fold Cmax): 99.20 ± 5.61 % of control
RCC activity III ([3]; 100-fold Cmax): 91.23 ± 6.54 % of control
State 3 respiration driven by glutamate/malate at 1XCmax [4, 11]: 0
State 3 respiration driven by succinate at 1XCmax [4, 11]: 0
State 4 respiration driven by glutamate/malate at 1XCmax [4, 11]: 0
State 4 respiration driven by succinate at 1XCmax [4, 11]: 0
State 3 respiration driven by glutamate/malate at 2.5XCmax [4, 12]: 0
State 3 respiration driven by succinate at 2.5XCmax [4, 12]: 0
State 4 respiration driven by glutamate/malate at 2.5XCmax [4, 12]: 0
State 4 respiration driven by succinate at 2.5XCmax [4, 12]: 0
State 3 respiration driven by glutamate/malate at 5XCmax [4, 13]: 0
State 3 respiration driven by succinate at 5XCmax [4, 13]: 0
State 4 respiration driven by glutamate/malate at 5XCmax [4, 13]: 0
State 4 respiration driven by succinate at 5XCmax [4, 13]: 0
State 3 respiration driven by glutamate/malate at 10XCmax [4, 14]: 0
State 3 respiration driven by succinate at 10XCmax [4, 14]: 0
State 4 respiration driven by glutamate/malate at 10XCmax [4, 14]: 0
State 4 respiration driven by succinate at 10XCmax [4, 14]: 0
State 3 respiration driven by glutamate/malate at 20XCmax [4, 15]: 0
State 3 respiration driven by succinate at 20XCmax [4, 15]: 0
State 4 respiration driven by glutamate/malate at 20XCmax [4, 15]: 0
State 4 respiration driven by succinate at 20XCmax [4, 15]: 0
State 3 respiration driven by glutamate/malate at 30XCmax [4, 16]: 0
State 3 respiration driven by succinate at 30XCmax [4, 16]: 0
State 4 respiration driven by glutamate/malate at 30XCmax [4, 16]: 0
State 4 respiration driven by succinate at 30XCmax [4, 16]: 0
State 3 respiration driven by glutamate/malate at 50XCmax [4, 17]: 0
State 3 respiration driven by succinate at 50XCmax [4, 17]: 0
State 4 respiration driven by glutamate/malate at 50XCmax [4, 17]: 0
State 4 respiration driven by succinate at 50XCmax [4, 17]: 0
State 3 respiration driven by glutamate/malate at 100XCmax [4, 18]: 0
State 3 respiration driven by succinate at 100XCmax [4, 18]: 0
State 4 respiration driven by glutamate/malate at 100XCmax [4, 18]: 0
State 4 respiration driven by succinate at 100XCmax [4, 18]: 0
effect on mitochondrial oxygen consumption ([4]; up to 100-fold Cmax or highest testable concentration): no effects
lowest concentration causing mitochondrial swelling [5]: 100 fold Cmax
Swelling 1XCmax ([5]; 1XCmax, difference in signal between KI and DMSO treated samples at the end of experiments): 0
Swelling 2.5XCmax ([5]; 2.5XCmax, difference in signal between KI and DMSO treated samples at the end of experiments): 0
Swelling 5XCmax ([5]; 5XCmax, difference in signal between KI and DMSO treated samples at the end of experiments): 0
Swelling 10XCmax ([5]; 10XCmax, difference in signal between KI and DMSO treated samples at the end of experiments): 0
Swelling 20XCmax ([5]; 20XCmax, difference in signal between KI and DMSO treated samples at the end of experiments): 0
Swelling 30XCmax ([5]; 30XCmax, difference in signal between KI and DMSO treated samples at the end of experiments): 0
Swelling 50XCmax ([5]; 50XCmax, difference in signal between KI and DMSO treated samples at the end of experiments): 0
Swelling 100XCmax ([5]; 100XCmax, difference in signal between KI and DMSO treated samples at the end of experiments): 0.22±0.06
effect on mitochondrial swelling ([5]; up to 100-fold Cmax or highest testable concentration, 25 µM calcium chloride): significant mitochondrial swelling
RCC I at 10XCmax ([6]; 10XCmax, relative to DMSO treated samples): 0
RCC activity I ([6]; 50-fold Cmax): 87.71 ± 0.58 % of control
RCC I at 50XCmax ([6]; 50XCmax, relative to DMSO treated samples): 87.71±0.58
RCC activity I ([6]; 100-fold Cmax): 65.88 ± 7.15 % of control
RCC I at 100XCmax ([6]; 100XCmax, relative to DMSO treated samples): 65.88±7.15
lowest concentration inhibiting RCC I ([6]; submitochondrial particles): 50 fold Cmax
DILI potential (based on labeling) ([7]; 1 = DILI positive, 0 = negative, ref product labeling): 0
DILI potential (based on labeling) ([7]; ref FDA product labeling): 0
RCC V at 5XCmax ([8]; 5XCmax, relative to DMSO treated samples): 0
RCC activity V ([8]; 50-fold Cmax): 95.65 ± 4.66 % of control
RCC activity V ([8]; 100-fold Cmax): 85.15 ± 8.36 % of control
RCC II at 1.0XCmax ([9]; 1.0XCmax): 0
RCC II at 2.5XCmax ([9]; 2.5XCmax): 0
RCC II at 5XCmax ([9]; 5XCmax): 0
RCC II at 10XCmax ([9]; 10XCmax): 0
RCC II at 20XCmax ([9]; 20XCmax): 0
RCC II at 30XCmax ([9]; 30XCmax): 0
RCC II at 50XCmax ([9]; 50XCmax): 0
RCC II at 100XCmax ([9]; 100XCmax): 0
Cmax ([10]; human therapeutic Cmax at FDA recommended dosages, ref product labeling and drug approval packages at the official FDA website): 1.8 µM
Cmax ([10]; read-out: Cmax at µM, therapeutic maximal blood concentration, ref product labeling): 1.8 µM
Cmax ([10]; therapeutic maximal blood concentration, ref product labeling): 857 ng/mL
